Values quoted from earlier work as cited in patent US10105355B2 (BASF SE, priority 2014, dated 2018).
Where two headings read alike, the source gives them in different places.

Structure (SMILES): CS(=O)(=O)c1ccc(C(=O)Nc2ccc(Cl)c(-c3ccccn3)c2)c(Cl)c1 [Vismodegib, 2-Chloro-N-(4-chloro-3-pyridin-2-ylphenyl)-4-methylsulfonylbenzamide]
- estimated elimination half-life (t½) (after a single dose treatment): 288 h
- estimated elimination half-life (t½) (after continuous once-daily dosing): 96 h
- exposure linearity (single doses higher than 270 mg): not linear
